Test results published in US4517180A, “Peptides, process for preparing the same and psychodepressant compositions containing the same” (Amano Pharmaceutical Co., Ltd, priority 1982, dated 1985).
Where a SMILES comes first, the peptide text is derived from it.

Tests used:
Type in all cases: in vivo
[1] = tested on: Male ddy mice; assay: Effect on hyperlocomotion induced by thyrotropin releasing hormone (TRH); conditions: for Activity counts (frequency per 60 min): Mean ± S.E.: 30 min before TRH 5 mg/kg i.p., control 1215 ± 114; for Effect on hyperlocomotion induced by TRH (in words): mice, s.c.
Method: Effect on hyperlocomotion induced by thyrotropin releasing hormone (TRH)
Male ddy mice (weighing 18 to 24.5 g) were used. The mice were placed into a transparent acrylic resin cage (26×37×11 cm) installed on Animex meter. Before experiment, the mice were allowed to habituate for 2 hours in the cage to fully lower the activity of the mice. After the completion of habituation, peptide A, peptide B or a diluent (physiological saline containing 1 mg/ml of sodium hydrogencarbonate) serving as a control was subcutaneously given to the mice. Thirty minutes thereafter, 5 mg/kg of TRH was intraperitoneally given to the animals. The activity counts during the period of 60 minutes following the administration of TRH was measured. Student's t-test was resorted to for statistical treatment.

[2] = tested on: Male ddy mice; assay: Effect on climbing behavior induced by apomorphine (Pharmacological Test 2); parameters: key to Average: Mean ± S.E. (total of 7 scores), climbing behavior: sum of 7 scores; 0 = all four legs on floor, 2 = ≥3 legs on rods; conditions: for Average: Mean ± S.E. (total of 7 scores), climbing behavior: 30 min before apomorphine 0.75 mg/kg s.c., control 9.8 ± 0.7; for Effect on apomorphine-induced climbing behavior (in words): mice, s.c.
Method: (§1) Effect on climbing behavior induced by apomorphine
Male ddy mice (weighing 20 to 30 g) were used, with 10 mice in each group. Each mouse was placed into a cylindrical cage, 12 cm in diameter and 14 cm in height, made up of vertical rods of 2 mm in diameter spaced apart at a distance of 10 mm in a circular arrangement. The mouse was allowed to stand therein for 2 hours. Peptide A, peptide B, CCK-8 or, as a control, the above-mentioned diluent was subcutaneously given to the animal, and 30 minutes later, 0.75 mg/kg of apomorphine was subcutaneously given. […] The test was carried out in soundproof compartments.
(§2) 0: All the four legs are on the floor.
(§3) 2: At least three legs are on rods.
Student's t-test was resorted to for statistical treatment.

[3] = tested on: male Wister rats; assay: Effect on metabolism of amine in the brain; conditions: 1 mg/kg s.c., 1 hour after administration
Method: Effect on metabolism of amine in the brain
Unfasted male Wister rats (weighing 180 to 220 g) were used. Peptide A or peptide B was subcutaneously given to the animal at a dose of 1 mg/kg, the head was irradiated with microwave 1 hour thereafter, and amine metabolite was extracted from the brain. First, removed tissues were homogenized with 1M formic acid and centrifuged at 20,000×g for 20 minutes, and the supernatant (1 ml) was shaken with 5 ml of ethyl acetate. The 3,4-dihydroxyphenylacetic acid (DOPAC), homovanillic acid (HVA) and 5-hydroxyindoleacetic acid (5-HIAA) in the ethyl acetate layer were analyzed by high-performance liquid chromatography under the following conditions. Chemcosorb, 5-ODS, 20 cm×4.6 mm I.D. was used for a separating column, and a mobile phase (0.1M KH2 PO4 (pH 5.0)-5 mM EDTA-2Na-5% acetonitrile) was passed through the colunn at a flow rate of 1 ml/min. The electrochemical detector was set to an oxidation potential of +0.8 V.

[4] = tested on: male Wister rats; assay: Effect on yawning behavior induced by apomorphine; conditions: for Number of yawns (average): 30 min before apomorphine 0.03 mg/kg s.c., counted 30 min, control 4.5; for Effect on yawning behavior induced by apomorphine (in words): rats, s.c.
Method: Effect on yawning behavior
Male Wister rats (weighing 200 to 300 g) were used, with 10 rats in each group. The rat was placed into a plastics cage (17×24×12 cm) with a floor mat and was then habituated for 30 minutes. Peptide A, peptide B, CCK-8 or the above-mentioned diluent serving as a control was subcutaneously given to the animal. Thirty minutes thereafter, 0.03 mg/kg of apomorphine was subcutaneously given to the animal. The number of yawns induced by apomorphine was counted during a period of 30 minutes following administration of apomorphine. The test was conducted in a soundproof compartment for each animal. Wilcoxon rank-sum test was resorted to for statistical treatment.

[5] = tested on: male Wister rats; assay: Effect on the fixed ratio (FR20) responding in rats; conditions: s.c., 15 min before 20 min session, dose giving count 50 with control as 100
Method: Effect on the fixed ratio responding in rats
The test was conducted according to the method described in Ahlenius S. and Engel J., Eur. J. Pharm., Vol. 15, 187-192 (1971).
Male Wister rats (weighing 240 to 320 g) were placed into Skinner box (product of Bil-Medika Co., Ltd., Japan, adapted to give a feed when a lever within the box is pressed) and made to learn how to take the food. In this test, one feed was given to the rats when the lever was pressed 20 times, i.e., fixed ratio (FR) 20. The rats showing stable FR20 response were divided into groups each including four rats.
Physiological saline (containing 1 mM of sodium hydrogencarbonate) containing a specified amount of a test compound was subcutaneously given to the rats of one group in a volume of 0.1 ml/100 g. (Physiological saline containing the above-mentioned amount of sodium hydrogencarbonate only was given to the control group). Fifteen minutes after the administration, the test animals were placed in the Skinner box, and the number of times the animals took the feed for 20 minutes was counted. The dose at which the count gained by the group of animals was 50, namely, ED50 value, was determined, with the count gained by the control group calculated as 100. The same procedure as above was repeated with use of the other test compounds.

[6] = tested on: Male ICR mice; assay: Inhibitory effect on hyperlocomotion induced by administration of methylphenidate; conditions: for Inhibitory effect on methylphenidate-induced hyperlocomotion (in words): s.c.; for ED50, inhibition of methylphenidate-induced hyperlocomotion: s.c. with methylphenidate 10 mg/kg s.c., measured 1 hour after, 50 with control as 100
Method: Inhibitory effect on hyperlocomotion induced by administration of methylphenidate
Male ICR mice (weighing 24 to 30 g) were divided into groups, each including 10 mice. To one group of mice were subcutaneously given 10 mg/kg of methylphenidate and 0.1 ml/10 g of a saline solution of a specified amount of a test compound and 1 mM of sodium hydrogencarbonate. One hour after the administration, the test animals were checked for hyperlocomotion, which was measured with use of a device for measuring locomotion of small animals (wherein the motion of an animal shifts the center of graavity of the device to actuate a microswitch for the measurement of the amount of motion, see Folia Pharmacologica Japonica, 74, 629-639 (1978). For a control group, the same procedure as above was repeated except that the saline solution given was free from any test compound. The concentration of the test compound at which the result achieved by the group of animals was 50, namely, ED50 value, was determined, with the measurement obtained by the control group calculated as 100. The other compounds were tested in the same manner as above.

[7] = tested on: Male ddy mice; assay: Effect on climbing behavior induced by apomorphine (Pharmacological Test 7); parameters: key: sum of 7 scores; each 0 = four legs on floor, 2 = ≥3 legs on rods; conditions: control 9.8 ± 0.7
Method: as §1
Male ddy mice (weighing 20 to 30 g) were used, with 10 mice in each group. Each mouse was placed into a cylindrical cage, 12 cm in diameter and 14 cm in height, made up of vertical rods of 2 mm in diameter spaced apart at a distance of 10 mm in a circular arrangement. The mouse was allowed to stand therein for 2 hours. Physiological saline containing a specified amount of a test compound (and 1 mM of sodium hydrogencarbonate) was subcutaneously given to one group of mice in a volume of 1 ml/10 g. (The same dose of saline only was given to a control group). […] The test was carried out in soundproof compartments.
as §2, §3
The other compounds were tested in the same manner as above. The test was carried out in soundproof compartments. Student's t-test was resorted to for statistical treatment.

Compound | Activity counts (frequency per 60 min): Mean ± S.E. ([1]; 0.1 mg/kg s.c.) [frequency per 60 min] | Activity counts (frequency per 60 min): Mean ± S.E. ([1]; 0.3 mg/kg s.c.) [frequency per 60 min] | Effect on hyperlocomotion induced by TRH (in words) [1] | Average: Mean ± S.E. (total of 7 scores), climbing behavior ([2]; 0.01 mg/kg s.c.) | Average: Mean ± S.E. (total of 7 scores), climbing behavior ([2]; 0.1 mg/kg s.c.) | Average: Mean ± S.E. (total of 7 scores), climbing behavior ([2]; 1 mg/kg s.c.) | Effect on apomorphine-induced climbing behavior (in words) [2] | Increase of DOPAC content in hypothalamus [3] | Influence on content of metabolite (DOPAC, HVA, 5-HIAA) in frontal cortex, limbic forebrain and striatum [3] | Number of yawns (average) ([4]; 1 mg/kg s.c.) | Effect on yawning behavior induced by apomorphine (in words) [4] | ED50, inhibition of FR20 responding [5] [mg/kg] | Inhibitory effect on methylphenidate-induced hyperlocomotion (in words) [6] | ED50, inhibition of methylphenidate-induced hyperlocomotion [6] [mg/kg] | Average: Mean ± S.E. (total of 7 scores), climbing behavior ([7]; 0.1 mg/kg s.c.) | Average: Mean ± S.E. (total of 7 scores), climbing behavior ([7]; 0.3 mg/kg s.c.) | Average: Mean ± S.E. (total of 7 scores), climbing behavior ([7]; 1.0 mg/kg s.c.) | also measured
CSCC[C@H](NC(=O)[C@H](Cc1ccc(OS(=O)(=O)O)cc1)NC(=O)[C@H](CC(=O)O)NC(=O)CCCC(=O)O)C(=O)NCC(=O)N[C@@H](Cc1c[nH]c2ccccc12)C(=O)N[C@@H](CCSC)C(=O)N[C@@H](CC(=O)O)C(=O)N[C@@H](Cc1ccccc1)C(N)=O [Peptide A, Glt--Asp--Tyr(SO 3 H)--Met--Gly--Trp--Met--Asp--Phe--NH2] | 936 ± 115 | 613 ± 114 | inhibit the hyperlocomotion induced by TRH | 8.6 ± 0.6 | 5.3 ± 0.5 | 4.5 ± 1.0 | inhibit the climbing behavior | about 60% | Neither of peptide A and peptide B was found to influence | 0 | inhibit the yawning behavior induced by apomorphine |  |  |  |  |  |  | Activity counts (frequency per 60 min): Mean ± S.E. ([1]; 1 mg/kg s.c.): 148 ± 34 frequency per 60 min; Average: Mean ± S.E. (total of 7 scores), climbing behavior ([2]; 0.03 mg/kg s.c.): 7.9 ± 0.6; Average: Mean ± S.E. (total of 7 scores), climbing behavior ([2]; 0.3 mg/kg s.c.): 5.1 ± 0.7; Number of yawns (average) ([4]; 0.3 mg/kg s.c.): 1.5
CSCC[C@H](NC(=O)[C@H](Cc1ccc(OS(=O)(=O)O)cc1)NC(=O)[C@H](CC(=O)O)NC(=O)[C@@H]1CCC(=O)N1)C(=O)NCC(=O)N[C@@H](Cc1c[nH]c2ccccc12)C(=O)N[C@@H](CCSC)C(=O)N[C@@H](CC(=O)O)C(=O)N[C@@H](Cc1ccccc1)C(N)=O [Peptide B, pGlu--Asp--Tyr(SO3 H)--Met--Gly--Trp--Met--Asp--Phe--NH2] | 601 ± 78 | 626 ± 143 | inhibit the hyperlocomotion induced by TRH | 8.7 ± 0.8 | 5.4 ± 0.8 | 4.7 ± 1.1 | inhibit the climbing behavior | about 60% | Neither of peptide A and peptide B was found to influence | 1.0 | inhibit the yawning behavior induced by apomorphine |  |  |  |  |  |  | Activity counts (frequency per 60 min): Mean ± S.E. ([1]; 0.03 mg/kg s.c.): 1009 ± 165 frequency per 60 min
CSCC[C@H](NC(=O)[C@H](Cc1ccc(OS(=O)(=O)O)cc1)NC(=O)CCC(=O)O)C(=O)NCC(=O)N[C@@H](Cc1c[nH]c2ccccc12)C(=O)N[C@@H](CCSC)C(=O)N[C@@H](CC(=O)O)C(=O)N[C@@H](Cc1ccccc1)C(N)=O [Peptide D, Suc--Tyr(SO3 H)--Met--Gly--Trp--Met--Asp--Phe--NH2] (HELM PEPTIDE1{[O=C(O)CCC(=O)[*:2]].[O=C([C@H](Cc1ccc(OS(=O)(=O)O)cc1)N[*:1])[*:2]].M.G.W.M.D.F.[am]}$$$$V2.0) |  |  |  |  |  |  |  |  |  |  |  | 0.0102 | especially high inhibitory effect | 0.0345 | 7.0 ± 0.3 | 5.9 ± 0.9 | 4.5 ± 1.0 | 
CSCC[C@H](NC(=O)[C@H](Cc1ccc(OS(=O)(=O)O)cc1)NC(=O)CCCC(=O)O)C(=O)NCC(=O)N[C@@H](Cc1c[nH]c2ccccc12)C(=O)N[C@@H](CCSC)C(=O)N[C@@H](CC(=O)O)C(=O)N[C@@H](Cc1ccccc1)C(N)=O [Peptide E, Glt--Tyr(SO3 H)--Met--Gly--Trp--Met--Asp--Phe--NH2] (HELM PEPTIDE1{[O=C(O)CCCC(=O)[*:2]].[O=C([C@H](Cc1ccc(OS(=O)(=O)O)cc1)N[*:1])[*:2]].M.G.W.M.D.F.[am]}$$$$V2.0) |  |  |  |  |  |  |  |  |  |  |  | 0.004 | especially high inhibitory effect | 0.0879 | 9.1 ± 0.9 | 7.9 ± 0.9 | 6.5 ± 0.7 | 
